From the supplement of paper PMC4862054

What follows are compounds tested on HCC1143 (assay: normalised viability (% of control), CellTiter-Blue; higher = more viable cells (about 100 = DMSO control)). Details: 1 nM; incubation time: 72 h.
In short: (§1)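 384-well plates were pre-loaded with compound in 5 µl medium before 20 µl of breast cancer cell suspension was seeded. Following 72 h incubation, 2.5 µl CellTiter-Blue reagent was added for 2 h at 37 °C. Fluorescence was read at 560/590 nm and plates were normalised to vehicle (100) and a positive kill control (0), checked by Z'-factor. Normalised viability is reported at a single listed concentration of the series.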

Compound	normalised viability
COc1ncc(-c2ccc3nccc(-c4ccnnc4)c3c2)cc1NS(=O)(=O)c1ccc(F)cc1F	72.4%
Cn1c(=O)c(F)c(Nc2ccc(I)cc2F)c2c(=O)n(C[C@@H](O)CO)cnc21 [TAK-733]	94.1%
CCS(=O)(=O)c1cccc(-c2cc(C(=O)NC3CCN(C)CC3)c(C)c3[nH]c4ncc(C)cc4c23)c1 [TAK-901]	87.3%
COc1cccc2c1C(=O)c1c(O)c3c(c(O)c1C2=O)C[C@@](O)(C(C)=O)C[C@@H]3O[C@H]1C[C@H](N)[C@H](O)[C@H](C)O1 [Daunorubicin]	81.4%

Same assay, conditions: 10 nM; incubation time: 72 h

Compound	normalised viability
COC1=CC(c2cc3ccccc3[nH]2)=N/C1=C\c1[nH]c(C)cc1C [Obatoclax]	69%
O=c1[nH]cc(F)c(=O)[nH]1 [Fluorouracil]	99.5%
CN1CCN(c2ccc3nc(-c4c(N)c5c(F)cccc5[nH]c4=O)[nH]c3c2)CC1 [Dovitinib]	86.9%

Same assay, conditions: 100 nM; incubation time: 72 h

Compound	normalised viability
COc1ncc(-c2ccc3nccc(-c4ccnnc4)c3c2)cc1NS(=O)(=O)c1ccc(F)cc1F	35.4%
Cn1c(=O)c(F)c(Nc2ccc(I)cc2F)c2c(=O)n(C[C@@H](O)CO)cnc21 [TAK-733]	68.6%
CCS(=O)(=O)c1cccc(-c2cc(C(=O)NC3CCN(C)CC3)c(C)c3[nH]c4ncc(C)cc4c23)c1 [TAK-901]	64.2%
CS(=O)(=O)OCCCCOS(C)(=O)=O [Busulfan]	104%
COc1cccc2c1C(=O)c1c(O)c3c(c(O)c1C2=O)C[C@@](O)(C(C)=O)C[C@@H]3O[C@H]1C[C@H](N)[C@H](O)[C@H](C)O1 [Daunorubicin]	52.7%

Same assay, conditions: 1000 nM; incubation time: 72 h

Compound	normalised viability
COc1ncc(-c2ccc3nccc(-c4ccnnc4)c3c2)cc1NS(=O)(=O)c1ccc(F)cc1F	16.5%
Cn1c(=O)c(F)c(Nc2ccc(I)cc2F)c2c(=O)n(C[C@@H](O)CO)cnc21 [TAK-733]	56.4%
CCS(=O)(=O)c1cccc(-c2cc(C(=O)NC3CCN(C)CC3)c(C)c3[nH]c4ncc(C)cc4c23)c1 [TAK-901]	27.1%
COC1=CC(c2cc3ccccc3[nH]2)=N/C1=C\c1[nH]c(C)cc1C [Obatoclax]	47.1%
COc1cccc2c1C(=O)c1c(O)c3c(c(O)c1C2=O)C[C@@](O)(C(C)=O)C[C@@H]3O[C@H]1C[C@H](N)[C@H](O)[C@H](C)O1 [Daunorubicin]	32%
O=c1[nH]cc(F)c(=O)[nH]1 [Fluorouracil]	91%
CN1CCN(c2ccc3nc(-c4c(N)c5c(F)cccc5[nH]c4=O)[nH]c3c2)CC1 [Dovitinib]	87.9%

Same assay, conditions: 10000 nM; incubation time: 72 h

Compound	normalised viability
COC1=CC(c2cc3ccccc3[nH]2)=N/C1=C\c1[nH]c(C)cc1C [Obatoclax]	33.1%
CS(=O)(=O)OCCCCOS(C)(=O)=O [Busulfan]	108%
O=c1[nH]cc(F)c(=O)[nH]1 [Fluorouracil]	64.9%
CN1CCN(c2ccc3nc(-c4c(N)c5c(F)cccc5[nH]c4=O)[nH]c3c2)CC1 [Dovitinib]	69.8%

Same assay, conditions: 100000 nM; incubation time: 72 h

Compound	normalised viability
CS(=O)(=O)OCCCCOS(C)(=O)=O [Busulfan]	108%

What follows are compounds tested on HCC1599 in the same assay as above. Details: 1 nM; incubation time: 72 h.
In short: as §1

Compound	normalised viability
COc1ncc(-c2ccc3nccc(-c4ccnnc4)c3c2)cc1NS(=O)(=O)c1ccc(F)cc1F	88%
Cn1c(=O)c(F)c(Nc2ccc(I)cc2F)c2c(=O)n(C[C@@H](O)CO)cnc21 [TAK-733]	94.8%
CCS(=O)(=O)c1cccc(-c2cc(C(=O)NC3CCN(C)CC3)c(C)c3[nH]c4ncc(C)cc4c23)c1 [TAK-901]	93.6%
COc1cccc2c1C(=O)c1c(O)c3c(c(O)c1C2=O)C[C@@](O)(C(C)=O)C[C@@H]3O[C@H]1C[C@H](N)[C@H](O)[C@H](C)O1 [Daunorubicin]	82.5%

Same assay, conditions: 10 nM; incubation time: 72 h

Compound	normalised viability
COC1=CC(c2cc3ccccc3[nH]2)=N/C1=C\c1[nH]c(C)cc1C [Obatoclax]	95.4%
O=c1[nH]cc(F)c(=O)[nH]1 [Fluorouracil]	102%
CN1CCN(c2ccc3nc(-c4c(N)c5c(F)cccc5[nH]c4=O)[nH]c3c2)CC1 [Dovitinib]	98%

Same assay, conditions: 100 nM; incubation time: 72 h

Compound	normalised viability
COc1ncc(-c2ccc3nccc(-c4ccnnc4)c3c2)cc1NS(=O)(=O)c1ccc(F)cc1F	34.5%
Cn1c(=O)c(F)c(Nc2ccc(I)cc2F)c2c(=O)n(C[C@@H](O)CO)cnc21 [TAK-733]	74.6%
CCS(=O)(=O)c1cccc(-c2cc(C(=O)NC3CCN(C)CC3)c(C)c3[nH]c4ncc(C)cc4c23)c1 [TAK-901]	83%
CS(=O)(=O)OCCCCOS(C)(=O)=O [Busulfan]	90.2%
COc1cccc2c1C(=O)c1c(O)c3c(c(O)c1C2=O)C[C@@](O)(C(C)=O)C[C@@H]3O[C@H]1C[C@H](N)[C@H](O)[C@H](C)O1 [Daunorubicin]	98.8%

Same assay, conditions: 1000 nM; incubation time: 72 h

Compound	normalised viability
COc1ncc(-c2ccc3nccc(-c4ccnnc4)c3c2)cc1NS(=O)(=O)c1ccc(F)cc1F	29.3%
Cn1c(=O)c(F)c(Nc2ccc(I)cc2F)c2c(=O)n(C[C@@H](O)CO)cnc21 [TAK-733]	70.5%
CCS(=O)(=O)c1cccc(-c2cc(C(=O)NC3CCN(C)CC3)c(C)c3[nH]c4ncc(C)cc4c23)c1 [TAK-901]	61.4%
COC1=CC(c2cc3ccccc3[nH]2)=N/C1=C\c1[nH]c(C)cc1C [Obatoclax]	64%
COc1cccc2c1C(=O)c1c(O)c3c(c(O)c1C2=O)C[C@@](O)(C(C)=O)C[C@@H]3O[C@H]1C[C@H](N)[C@H](O)[C@H](C)O1 [Daunorubicin]	53.7%
O=c1[nH]cc(F)c(=O)[nH]1 [Fluorouracil]	96.1%
CN1CCN(c2ccc3nc(-c4c(N)c5c(F)cccc5[nH]c4=O)[nH]c3c2)CC1 [Dovitinib]	98.8%

Same assay, conditions: 10000 nM; incubation time: 72 h

Compound	normalised viability
COC1=CC(c2cc3ccccc3[nH]2)=N/C1=C\c1[nH]c(C)cc1C [Obatoclax]	44.9%
CS(=O)(=O)OCCCCOS(C)(=O)=O [Busulfan]	75.4%
O=c1[nH]cc(F)c(=O)[nH]1 [Fluorouracil]	76.9%
CN1CCN(c2ccc3nc(-c4c(N)c5c(F)cccc5[nH]c4=O)[nH]c3c2)CC1 [Dovitinib]	89%

Same assay, conditions: 100000 nM; incubation time: 72 h

Compound	normalised viability
CS(=O)(=O)OCCCCOS(C)(=O)=O [Busulfan]	109%

The compounds below were run on BT-549 in the same assay as above. Details: 1 nM; incubation time: 72 h.
In short: as §1

Compound	normalised viability
COc1ncc(-c2ccc3nccc(-c4ccnnc4)c3c2)cc1NS(=O)(=O)c1ccc(F)cc1F	88%
Cn1c(=O)c(F)c(Nc2ccc(I)cc2F)c2c(=O)n(C[C@@H](O)CO)cnc21 [TAK-733]	92%
CCS(=O)(=O)c1cccc(-c2cc(C(=O)NC3CCN(C)CC3)c(C)c3[nH]c4ncc(C)cc4c23)c1 [TAK-901]	94.6%
COc1cccc2c1C(=O)c1c(O)c3c(c(O)c1C2=O)C[C@@](O)(C(C)=O)C[C@@H]3O[C@H]1C[C@H](N)[C@H](O)[C@H](C)O1 [Daunorubicin]	87%

Same assay, conditions: 10 nM; incubation time: 72 h

Compound	normalised viability
COC1=CC(c2cc3ccccc3[nH]2)=N/C1=C\c1[nH]c(C)cc1C [Obatoclax]	78.7%
O=c1[nH]cc(F)c(=O)[nH]1 [Fluorouracil]	101%
CN1CCN(c2ccc3nc(-c4c(N)c5c(F)cccc5[nH]c4=O)[nH]c3c2)CC1 [Dovitinib]	83%

Same assay, conditions: 100 nM; incubation time: 72 h

Compound	normalised viability
COc1ncc(-c2ccc3nccc(-c4ccnnc4)c3c2)cc1NS(=O)(=O)c1ccc(F)cc1F	29.4%
